Laboratory results published in patent US20250367212A1, “PHARMACOTHERAPY FOR OBSESSIVE-COMPULSIVE DISORDER TARGETING DOPAMINE D1 SIGNAL IN STRIATAL STRIOSOMES” (priority 2022, published 2025).
Like-named read-outs stand apart in the source and are kept apart here.

How the values were obtained:
[1] = tested on: patients with blepharospasm; conditions: for neurological or neuropsychiatric changes during the drug challenge test: in vivo
[2] = tested on: rodent model using fear conditioning; conditions: cited from earlier work
[3] = n=7 per group, 8 weeks, single drug

| Structure (SMILES) | neurological or neuropsychiatric changes during the drug challenge test [1] | change in severity of blepharospasm, BSDI, before vs after drug challenge test [1, 3] | change in severity of blepharospasm, JRS, before vs after drug challenge test [1, 3] | change in severity of blepharospasm, VAS, before vs after drug challenge test [1, 3] | change in severity of blepharospasm, mVAS, before vs after drug challenge test [1, 3] | fear memory ([2]; single injection of D2 receptor antagonist, Ponnusamy et al., Learning & Memory 2005) | corrected VAS (mVAS), after the drug challenge test ([1]; L-DOPA group, n=7, DOPACOL 1 to 3 tablets/day over 8 weeks, before 141.3±8.7, P<0.05, severity significantly progressed) | fear memory ([2]; administration of D1 receptor agonist, Chen et al., Brain Research 2020) |
| --- | --- | --- | --- | --- | --- | --- | --- | --- |
| CN(C)CCCN1c2ccccc2Sc2ccc(Cl)cc21 [CPZ, chlorpromazine] | No apparent neurological or neuropsychiatric changes | No significant changes in severity | No significant changes in severity | No significant changes in severity | No significant changes in severity | – | – | – |
| CCN1CCCC1CNC(=O)c1cc(S(N)(=O)=O)ccc1OC (stereo not drawn) [sulpiride] | – | – | – | – | – | effective in erasing fear memory | – | – |
| N[C@@H](Cc1ccc(O)c(O)c1)C(=O)O [L-DOPA, L-3,4-dihydroxyphenylalanine] | No apparent neurological or neuropsychiatric changes | no severity progressed | no severity progressed | no severity progressed | – | – | 178.8±24.3 | – |
| Br.Cc1cccc(C2CN(C)CCc3c2cc(O)c(O)c3Cl)c1 (stereo not drawn) [SKF83959] | – | – | – | – | – | – | – | long-term loss of fear memory |
